Assay results: patent US20210045385A1, “PYRIDAZINONE-SUBSTITUTED KETOXIMES AS HERBICIDES” (FMC Corporation, priority 2018, published 2021)

What was measured:
Assay type in all cases: in vivo
[1] = system: galium (catchweed bedstraw, Galium aparine); experiment: Test C postemergence, visual plant response rating; conditions: Test C, postemergence
In short: (§1)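 Seeds sown in a loam–sand blend got a directed preemergence soil spray; postemergence plants (2–10 cm, one- to two-leaf stage) were sprayed with compound in a non-phytotoxic solvent plus surfactant. Injury was scored visually against untreated controls after about 10 d in a greenhouse on a 0–100 scale (100 = complete control).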

[2] = system: foxtail, giant (giant foxtail, Setaria faberi); experiment: Test C postemergence, visual plant response rating; conditions: Test C, postemergence
In short: as §1

[3] = system: blackgrass (Alopecurus myosuroides); experiment: Test C postemergence, visual plant response rating; conditions: Test C, postemergence
In short: as §1

[4] = system: Italian ryegrass (Lolium mutiflorum); experiment: Test C postemergence, visual plant response rating
In short: as §1

[5] = system: kochia (Bassia scoparia); experiment: Test C postemergence, visual plant response rating; conditions: Test C, postemergence
In short: as §1

[6] = system: ragweed (common ragweed, Ambrosia artemisiifolia); experiment: Test C postemergence, visual plant response rating
In short: as §1

[7] = system: corn (Zea mays); experiment: Test C postemergence, visual plant response rating; conditions: Test C, postemergence
In short: as §1

[8] = system: barnyardgrass (Echinochloa crus-galli); experiment: Test C postemergence, visual plant response rating; conditions: Test C, postemergence
In short: as §1

[9] = system: wheat (Triticum aestivum); experiment: Test C postemergence, visual plant response rating
In short: as §1

[10] = system: pigweed (Amaranthus retroflexus); experiment: Test C postemergence, visual plant response rating
In short: as §1

[11] = system: foxtail, giant (giant foxtail, Setaria faberi); experiment: Test C preemergence, visual plant response rating
In short: as §1

[12] = system: Italian ryegrass (Lolium mutiflorum); experiment: Test C preemergence, visual plant response rating
In short: as §1

[13] = system: kochia (Bassia scoparia); experiment: Test C preemergence, visual plant response rating
In short: as §1

[14] = system: ragweed (common ragweed, Ambrosia artemisiifolia); experiment: Test C preemergence, visual plant response rating
In short: as §1

[15] = system: barnyardgrass (Echinochloa crus-galli); experiment: Test C preemergence, visual plant response rating
In short: as §1

[16] = system: pigweed (Amaranthus retroflexus); experiment: Test C preemergence, visual plant response rating
In short: as §1

[17] = system: duck salad (Heteranthera limosa); experiment: Test D flooded paddy test, visual plant response rating; conditions: 250 g ai/ha, scale 0 to 100 (0 no effect, 100 complete control), 13 to 15 d
In short: (§2)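 Greenhouse paddy assay scored on a 0–100 visual scale after 13 to 15 d, where 100 means complete control and a dash marks no result; dosing was into 3 cm floodwater over 2-leaf plants.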

[18] = system: rice (Oryza sativa); experiment: as above; conditions: 250 g ai/ha, scale 0 to 100 (0 no effect, 100 complete control), 13 to 15 d
In short: as §2

[19] = system: sedge umbrella (small-flower umbrella sedge, Cyperus difformis); experiment: as above; conditions: 250 g ai/ha, scale 0 to 100 (0 no effect, 100 complete control), 13 to 15 d
In short: as §2

[20] = system: barnyardgrass (Echinochloa crus-galli); experiment: as above; conditions: 250 g ai/ha, scale 0 to 100 (0 no effect, 100 complete control), 13 to 15 d
In short: as §2

[21] = Test C, postemergence, 125 g ai/ha
[22] = Test C, postemergence, 500 g ai/ha
[23] = Test C, 31 g ai/ha, 0 is no effect, 100 is complete control

Row | Structure (SMILES) | Galium plant response rating (0 to 100 scale) ([1]; 125 g ai/ha) | Foxtail, Giant plant response rating (0 to 100 scale) ([2]; 125 g ai/ha) | Blackgrass plant response rating (0 to 100 scale) ([3]; 125 g ai/ha) | Ryegrass, Italian plant response rating (0 to 100 scale) [4, 21] | Kochia plant response rating (0 to 100 scale) ([5]; 125 g ai/ha) | Ragweed plant response rating (0 to 100 scale) [6, 21] | Corn plant response rating (0 to 100 scale) ([7]; 125 g ai/ha) | Barnyardgrass plant response rating (0 to 100 scale) ([8]; 125 g ai/ha) | Wheat plant response rating (0 to 100 scale) [9, 21] | Pigweed plant response rating (0 to 100 scale) [10, 21] | Foxtail, Giant plant response rating (0 to 100 scale) ([11]; 125 g ai/ha) | Ryegrass, Italian plant response rating (0 to 100 scale) ([12]; 125 g ai/ha) | Kochia plant response rating (0 to 100 scale) ([13]; 125 g ai/ha) | Ragweed plant response rating (0 to 100 scale) ([14]; 125 g ai/ha) | Barnyardgrass plant response rating (0 to 100 scale) ([15]; 125 g ai/ha) | Pigweed plant response rating (0 to 100 scale) ([16]; 125 g ai/ha) | Plant response rating, Ducksalad (Flood) [17] | Plant response rating, Rice (Flood) [18] | Plant response rating, Sedge, Umbrella (Flood) [19] | Plant response rating, Barnyardgrass (Flood) [20] | other results
1 | CON=C(c1csc(C)c1)c1c(O)c(C)nn(C)c1=O [Compound 151] | 40 | 0 | 0 | 20 | 0 | 0 | 0 | 0 | 0 | 10 | 0 | 0 | 0 | 0 | 0 | 0 | 0 | 0 | 0 | 0 | Galium plant response rating (0 to 100 scale) ([1]; 500 g ai/ha): 50; Foxtail, Giant plant response rating (0 to 100 scale) ([2]; 500 g ai/ha): 10; Blackgrass plant response rating (0 to 100 scale) ([3]; 500 g ai/ha): 30; Ryegrass, Italian plant response rating (0 to 100 scale) [4, 22]: 30; Kochia plant response rating (0 to 100 scale) ([5]; 500 g ai/ha): 20; Ragweed plant response rating (0 to 100 scale) [6, 22]: 30; Corn plant response rating (0 to 100 scale) ([7]; 500 g ai/ha): 0; Barnyardgrass plant response rating (0 to 100 scale) ([8]; 500 g ai/ha): 10; Wheat plant response rating (0 to 100 scale) [9, 22]: 0; Pigweed plant response rating (0 to 100 scale) [10, 22]: 10; Foxtail, Giant plant response rating (0 to 100 scale) ([11]; 500 g ai/ha): 0; Ryegrass, Italian plant response rating (0 to 100 scale) ([12]; 500 g ai/ha): 30; Kochia plant response rating (0 to 100 scale) ([13]; 500 g ai/ha): 0; Ragweed plant response rating (0 to 100 scale) ([14]; 500 g ai/ha): 0; Barnyardgrass plant response rating (0 to 100 scale) ([15]; 500 g ai/ha): 0; Pigweed plant response rating (0 to 100 scale) ([16]; 500 g ai/ha): 0
2 | CO/N=C(\c1cc(F)cc(F)c1C)c1c(O)c(C)nn(C)c1=O [Compound 152] | 80 | 50 | 10 | 80 | 80 | 90 | 0 | 20 | 0 | 70 | 20 | 80 | 10 | 40 | 10 | 30 | 0 | 0 | 0 | 0 | Galium plant response rating (0 to 100 scale) ([1]; 31 g ai/ha): 80; Foxtail, Giant plant response rating (0 to 100 scale) ([2]; 31 g ai/ha): 10; Blackgrass plant response rating (0 to 100 scale) ([3]; 31 g ai/ha): 0; Ryegrass, Italian plant response rating (0 to 100 scale) ([4]; Postemergence, 31 g ai/ha): 20; Kochia plant response rating (0 to 100 scale) ([5]; 31 g ai/ha): 50; Ragweed plant response rating (0 to 100 scale) ([6]; Postemergence, 31 g ai/ha): 40; Corn plant response rating (0 to 100 scale) ([7]; 31 g ai/ha): 0; Barnyardgrass plant response rating (0 to 100 scale) ([8]; 31 g ai/ha): 0; Wheat plant response rating (0 to 100 scale) ([9]; Postemergence, 31 g ai/ha): 0; Pigweed plant response rating (0 to 100 scale) ([10]; Postemergence, 31 g ai/ha): 60; Foxtail, Giant plant response rating (0 to 100 scale) [11, 23]: 0; Ryegrass, Italian plant response rating (0 to 100 scale) [12, 23]: 20; Kochia plant response rating (0 to 100 scale) [13, 23]: 0; Ragweed plant response rating (0 to 100 scale) [14, 23]: 20; Barnyardgrass plant response rating (0 to 100 scale) [15, 23]: 0; Pigweed plant response rating (0 to 100 scale) [16, 23]: 0
